Results reported in patent US11739098B2 (BRISTOL-MYERS SQUIBB COMPANY, priority 2017, dated 2023).

Columns and labels:
Format in all cases: cell-based
[1] = target: T1, human TLR8 (Homo sapiens, UniProt Q9NR97); experiment: TLR8 inhibition reporter assay (HEK-Blue cells, SEAP reporter, R848 stimulation); conditions: HEK-Blue cells overexpressing human TLR8, SEAP reporter, R848 15.9 μM
T1 construct: host or cells: HEK-Blue cells (HEK293-derived reporter line)
T1 sequence (Q9NR97 27-1041): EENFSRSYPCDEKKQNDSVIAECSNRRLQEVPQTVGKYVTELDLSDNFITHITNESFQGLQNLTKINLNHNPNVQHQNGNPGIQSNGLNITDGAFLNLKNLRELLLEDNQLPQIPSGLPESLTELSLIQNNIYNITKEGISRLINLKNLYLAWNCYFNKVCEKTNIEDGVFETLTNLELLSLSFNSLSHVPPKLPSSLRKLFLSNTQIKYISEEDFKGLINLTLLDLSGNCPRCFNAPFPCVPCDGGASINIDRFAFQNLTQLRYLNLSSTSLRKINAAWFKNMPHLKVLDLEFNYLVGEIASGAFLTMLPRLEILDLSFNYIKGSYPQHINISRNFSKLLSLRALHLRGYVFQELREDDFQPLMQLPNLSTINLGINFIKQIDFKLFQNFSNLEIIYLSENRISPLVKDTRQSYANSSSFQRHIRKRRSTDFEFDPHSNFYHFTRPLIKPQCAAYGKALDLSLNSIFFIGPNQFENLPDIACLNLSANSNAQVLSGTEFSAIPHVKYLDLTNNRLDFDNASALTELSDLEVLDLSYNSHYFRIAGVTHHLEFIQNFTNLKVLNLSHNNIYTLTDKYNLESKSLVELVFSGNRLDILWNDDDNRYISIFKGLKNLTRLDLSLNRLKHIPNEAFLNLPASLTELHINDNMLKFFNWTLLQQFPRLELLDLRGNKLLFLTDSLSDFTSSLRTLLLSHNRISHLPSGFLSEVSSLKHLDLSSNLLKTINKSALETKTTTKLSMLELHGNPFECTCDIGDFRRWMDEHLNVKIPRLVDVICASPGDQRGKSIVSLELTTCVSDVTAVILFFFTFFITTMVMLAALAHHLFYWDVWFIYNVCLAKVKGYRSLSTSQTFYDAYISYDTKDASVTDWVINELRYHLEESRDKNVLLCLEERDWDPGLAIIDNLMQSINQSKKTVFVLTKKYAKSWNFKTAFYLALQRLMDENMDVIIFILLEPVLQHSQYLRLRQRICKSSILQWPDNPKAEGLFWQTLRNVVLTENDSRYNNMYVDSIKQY
Outline: (§1)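 After 22 h at 37 °C, SEAP secretion was measured from human TLR7-, TLR8- or TLR9-expressing HEK-Blue reporter cells given compound (0.05 nM–50 μM) 30 min before agonist: 7.5 μM gardiquimod, 15.9 μM R848 or 5 nM ODN2006 respectively. Percent inhibition referenced to agonist-plus-DMSO and known-inhibitor wells.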

[2] = target: T2, human TLR9 (Homo sapiens, UniProt Q9NR96); experiment: TLR9 inhibition reporter assay (HEK-Blue cells, SEAP reporter, ODN2006 stimulation); conditions: HEK-Blue cells overexpressing human TLR9, SEAP reporter, ODN2006 5 nM
T2 construct: host or cells: HEK-Blue cells (HEK293-derived reporter line)
T2 sequence (Q9NR96 26-1032): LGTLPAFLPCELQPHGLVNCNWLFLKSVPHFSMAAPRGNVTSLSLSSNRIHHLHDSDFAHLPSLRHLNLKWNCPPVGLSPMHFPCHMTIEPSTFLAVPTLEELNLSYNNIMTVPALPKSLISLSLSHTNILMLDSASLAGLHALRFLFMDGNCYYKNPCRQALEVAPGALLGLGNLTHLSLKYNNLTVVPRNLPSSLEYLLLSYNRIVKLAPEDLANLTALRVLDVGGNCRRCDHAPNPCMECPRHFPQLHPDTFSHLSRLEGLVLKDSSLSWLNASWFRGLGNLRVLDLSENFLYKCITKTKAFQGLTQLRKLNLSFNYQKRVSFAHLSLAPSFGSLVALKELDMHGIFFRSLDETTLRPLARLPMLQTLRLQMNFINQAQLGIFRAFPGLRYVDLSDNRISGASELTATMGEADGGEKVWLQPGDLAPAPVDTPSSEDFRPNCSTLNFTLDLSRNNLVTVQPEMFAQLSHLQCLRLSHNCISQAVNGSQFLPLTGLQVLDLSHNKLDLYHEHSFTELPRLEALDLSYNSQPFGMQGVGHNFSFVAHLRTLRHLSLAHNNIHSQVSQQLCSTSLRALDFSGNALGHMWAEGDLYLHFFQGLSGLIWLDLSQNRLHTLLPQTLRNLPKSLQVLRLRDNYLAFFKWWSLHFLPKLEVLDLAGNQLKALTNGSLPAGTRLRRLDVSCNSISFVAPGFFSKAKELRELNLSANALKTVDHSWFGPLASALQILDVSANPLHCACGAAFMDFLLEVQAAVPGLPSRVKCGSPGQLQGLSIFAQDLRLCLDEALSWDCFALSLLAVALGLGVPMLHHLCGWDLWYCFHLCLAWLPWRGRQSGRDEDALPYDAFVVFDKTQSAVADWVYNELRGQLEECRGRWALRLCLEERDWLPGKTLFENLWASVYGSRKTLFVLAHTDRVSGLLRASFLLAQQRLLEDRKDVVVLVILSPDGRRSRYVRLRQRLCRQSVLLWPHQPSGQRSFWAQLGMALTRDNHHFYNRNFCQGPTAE
Outline: as §1

[3] = target: T3, human TLR7 (Homo sapiens, UniProt Q9NYK1); experiment: TLR7 inhibition reporter assay (HEK-Blue cells, SEAP reporter, gardiquimod stimulation); conditions: HEK-Blue cells overexpressing human TLR7, SEAP reporter, gardiquimod 7.5 μM
T3 construct: host or cells: HEK-Blue cells (HEK293-derived reporter line)
T3 sequence (Q9NYK1 27-1049): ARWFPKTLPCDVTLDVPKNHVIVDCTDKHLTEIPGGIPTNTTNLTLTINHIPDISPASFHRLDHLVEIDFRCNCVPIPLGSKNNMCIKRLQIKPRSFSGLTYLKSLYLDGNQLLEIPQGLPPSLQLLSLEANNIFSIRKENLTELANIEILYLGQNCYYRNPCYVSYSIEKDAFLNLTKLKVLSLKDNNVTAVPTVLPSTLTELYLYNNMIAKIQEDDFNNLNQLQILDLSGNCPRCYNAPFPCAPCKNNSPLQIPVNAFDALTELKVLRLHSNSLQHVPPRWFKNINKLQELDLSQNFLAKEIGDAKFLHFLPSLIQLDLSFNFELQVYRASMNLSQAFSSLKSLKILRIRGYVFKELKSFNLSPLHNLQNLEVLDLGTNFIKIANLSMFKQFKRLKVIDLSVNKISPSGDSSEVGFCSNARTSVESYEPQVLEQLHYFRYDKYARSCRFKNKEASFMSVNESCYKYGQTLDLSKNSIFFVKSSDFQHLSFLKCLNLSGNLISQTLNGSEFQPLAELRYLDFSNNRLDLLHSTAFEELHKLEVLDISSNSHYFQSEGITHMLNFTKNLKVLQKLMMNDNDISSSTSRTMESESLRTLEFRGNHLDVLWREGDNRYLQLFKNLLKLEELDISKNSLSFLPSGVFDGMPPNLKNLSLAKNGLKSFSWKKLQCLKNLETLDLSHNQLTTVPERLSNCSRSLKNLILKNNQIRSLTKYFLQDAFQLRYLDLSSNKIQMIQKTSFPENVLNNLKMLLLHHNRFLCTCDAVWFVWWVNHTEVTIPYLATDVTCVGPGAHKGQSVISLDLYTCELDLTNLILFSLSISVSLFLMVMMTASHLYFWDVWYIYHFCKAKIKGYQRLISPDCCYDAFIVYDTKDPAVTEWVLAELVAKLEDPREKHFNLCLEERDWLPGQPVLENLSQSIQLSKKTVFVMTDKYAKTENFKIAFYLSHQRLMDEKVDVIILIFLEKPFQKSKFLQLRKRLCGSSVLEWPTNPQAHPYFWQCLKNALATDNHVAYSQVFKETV
Outline: as §1

IC50 [1]	IC50 [2]	IC50 [3]	SMILES
100 to 1000 nM	100 to 1000 nM	< 100 nM	CNCCN1CCC(c2ccc3[nH]c(-c4ccc5nc(C)cn5c4)c(C(C)C)c3c2)CC1 [Example 676, 2-(4-(3-isopropyl-2-(2-methylimidazo[1,2-a]pyridin-6-yl)-1H-indol-5-yl)piperidin-1-yl)-N-methylethan-1-amine]
100 to 1000 nM	1000 to 50000 nM	< 100 nM	CNC(=O)CN1CCC(c2ccc3[nH]c(-c4cc(C)c5nc(C(=O)N(C)CCO)cn5c4)c(C(C)C)c3c2)CC1 [Example 345, N-(2-hydroxyethyl)-6-(3-isopropyl-5-(1-(2-(methylamino)-2-oxoethyl)piperidin-4-yl)-1H-indol-2-yl)-N,8-dimethylimidazo[1,2-a]pyridine-2-carboxamide]
< 100 nM	100 to 1000 nM	< 100 nM	CC(C)c1c(-c2cc(CO)c3nccn3c2)[nH]c2ccc(C3CCN(C(=O)CN(C)C)CC3)cc12 [Example 492, 2-(dimethylamino)-1-(4-(2-(8-(hydroxymethyl)imidazo[1,2-a]pyridin-6-yl)-3-isopropyl-1H-indol-5-yl)piperidin-1-yl)ethan-1-one]
100 to 1000 nM	< 100 nM	< 100 nM	Cc1cn2cc(-c3[nH]c4ccc(C5CCN(Cc6c[nH]c(C)n6)CC5)cc4c3C(C)C)ccc2n1 [Example 937, 6-(3-isopropyl-5-(1-((2-methyl-1H-imidazol-4-yl)methyl)piperidin-4-yl)-1H-indol-2-yl)-2-methylimidazo[1,2-a]pyridine]
1000 to 50000 nM	1000 to 50000 nM	1000 to 50000 nM	CCc1c(-c2ccnc3nn[nH]c23)[nH]c2ccc(C3CCNCC3)cc12 [Example 56, 7-(3-ethyl-5-(piperidin-4-yl)-1H-indol-2-yl)-1H-[1,2,3]triazolo[4,5-b] pyridine]
100 to 1000 nM	1000 to 50000 nM	1000 to 50000 nM	CC(C)c1c(-c2ccnc3[nH]cc(O)c23)[nH]c2ccc(C3CCNCC3)cc12 [Example 216, 4-(3-isopropyl-5-(piperidin-4-yl)-1H-indol-2-yl)-1H-pyrrolo[2,3-b]pyridin-3-ol]
< 100 nM	1000 to 50000 nM	< 100 nM	CC(C)c1c(-c2cc(CO)c3nnnn3c2)[nH]c2ccc(C3CCN(CC4(C)COC4)CC3)cc12 [Example 781, (6-(3-isopropyl-5-(1-((3-methyloxetan-3-yl)methyl)piperidin-4-yl)-1H-indol-2-yl)tetrazolo[1,5-a]pyridin-8-yl)methanol]
< 100 nM	100 to 1000 nM	< 100 nM	CC(C)c1c(-c2ccnc3[nH]cnc23)[nH]c2ccc(C3CCNCC3)cc12 [Example 61, 7-(3-isopropyl-5-(piperidin-4-yl)-1H-indol-2-yl)-3H-imidazo[4,5-b]pyridine]
< 100 nM	100 to 1000 nM	< 100 nM	COC(=O)C1CC(N2CCC(c3ccc4[nH]c(-c5ccnc6[nH]ncc56)c(C(C)C)c4c3)CC2)CCN1 (stereo not drawn) [Example 831, methyl 4-(3-isopropyl-2-(1H-pyrazolo[3,4-b]pyridin-4-yl)-1H-indol-5-yl)-[1,4′-bipiperidine]-2′-carboxylate]
< 100 nM	100 to 1000 nM	< 100 nM	Cc1c(-c2[nH]c3ccc(C4CCN(CC(=O)N(C)C)CC4)cc3c2C(C)C)cn2ccnc2c1C [Example 412, 2-(4-(2-(7,8-dimethylimidazo[1,2-a]pyridin-6-yl)-3-isopropyl-1H-indol-5-yl)piperidin-1-yl)-N,N-dimethylacetamide]
< 100 nM	< 100 nM	< 100 nM	CC(C)c1c(-c2ccnc3[nH]ncc23)[nH]c2cc(F)c(C3CCN(CC4CCN(C(C)C)CC4)CC3)cc12 [Example 966, 4-(6-fluoro-3-isopropyl-5-(1-((1-isopropylpiperidin-4-yl)methyl)piperidin-4-yl)-1H-indol-2-yl)-1H-pyrazolo[3,4-b]pyridine]
< 100 nM	100 to 1000 nM	100 to 1000 nM	COc1cc(-c2[nH]c3ccc(C4CCN(CC(C)(C)O)CC4)cc3c2C(C)C)cc2nccn12 [Example 758, 1-(4-(3-isopropyl-2-(5-methoxyimidazo[1,2-a]pyridin-7-yl)-1H-indol-5-yl)piperidin-1-yl)-2-methylpropan-2-ol]
> 3130 nM	100 to 1000 nM	> 50000 nM	CNCCN1CCC(c2ccc3[nH]c(-c4ccc5c(ccn5C)c4)c(C)c3c2)CC1 [Example 672, 2-(4-(1′,3-dimethyl-1H,1′H-[2,5′-biindol]-5-yl)piperidin-1-yl)-N-methylethan-1-amine]
100 to 1000 nM	1000 to 50000 nM	< 100 nM	Cc1cc(-c2[nH]c3ccc(C4CCN(C5COC5)CC4)cc3c2C(C)C)cc2cccnc12 [Example 723, 6-(3-isopropyl-5-(1-(oxetan-3-yl)piperidin-4-yl)-1H-indol-2-yl)-8-methylquinoline]
